Patent US20260240202A1, “MINERAL PROTEINATES FOR USE IN ANIMAL FEEDS, AND METHODS OF MAKING THEREOF” (Cargill, Incorporated, priority 2023, published 2026)
Marks after values point to notes of the source that are not given here.

Assay: Chick Zn bioavailability trial: performance and tibia bone measures
Format: in vivo, New Hampshire×Columbian male and female chicks
Conditions: for Dry Bone Wt (mg/tibia) / Bone Ash (%) / Bone Ash Wt (mg/tibia) / Tibia Ash Zn Conc. (μg/g of ash): 14 d; for Dry Bone Wt (mg/tibia): right tibia
Procedure: New Hampshire×Columbian male and female chicks from the University of Illinois Poultry Field Laboratory were fed a nutritionally complete corn-soybean meal diet for the first 3 days post-hatching. The chicks were then switched to a Zn-deficient soy concentrate basal diet and fed this diet until 1600 h on D 7 post-hatching. After being subjected to overnight feed withdrawal, chicks were weighed, wing banded and allotted to pens so that each pen has a similar initial weight. Treatment additions were made at the expense of cornstarch. The trial diet can be seen in Table 6.
Five replicate groups of four chicks were fed one of 10 diets for 14 d (Day 8-22 post-hatch). Chicks were maintained in heated stainless-steel batteries and exposed to constant fluorescent light. The dietary treatments are listed below: • 1. Basal soy concentrate diet-Zn deficient (13-14 mg/kg Zn) • 2. As 1+3 mg/kg Zn from feed grade ZnSO4·7H2O • 3. As 1+6 mg/kg Zn from feed grade ZnSO4·7H2O • 4. As 1+9 mg/kg Zn from feed grade ZnSO4·7H2O • 5. As 1+3 mg/kg Zn from Organic Zn prototype MinPro-E75 • 6. As 1+6 mg/kg Zn from Organic Zn prototype MinPro-E75 • 7. As 1+9 mg/kg Zn from Organic Zn prototype MinPro-E75 • 8. As 1+3 mg/kg Zn from Organic Zn prototype MinPro-HSW • 9. As 1+6 mg/kg Zn from Organic Zn prototype MinPro-HSW • 10. As 1+9 mg/kg Zn from Organic Zn prototype MinPro-HSW
Chicks were weighed at the beginning and the end of the trial and weight gain calculated by subtracting the starting weight from the ending weight. Feed intakes were calculated via subtracting the feed refusals from the feed provided, with Zn intakes calculated based on Zn concentration in the diet and total feed consumed. Feed conversions were determined by using the feed consumed divided by weight gained.
Upon termination of the experiment, chicks and feeders were weighed and chicks were euthanized with CO2 gas. The right tibia from each chick was removed and pooled by replicate pen. The tibia was then autoclaved and cleaned to remove all adhering tissue, dried at 110° C. for 24 h, and then dry ashed in a muffle furnace. The ash was analyzed for Zn at the University of Missouri. Bioavailability of Zn was then determined by the slope-ratio method using multiple regression analysis. Weight gain, tibia Zn concentration and total tibia Zn were regressed on supplemental Zn intake from the Zn sources and the bioavailability of the Zn in the Zn-protein sources was calculated relative to the Zn in ZnSO4·7H2O.

Q: What does the source list for O.O.O.O.O.O.O.O=S(=O)([O-])[O-].[Zn+2] [ZnSO4, ZnSO4·7H2O]?
A: Dry Bone Wt (mg/tibia) (3 mg/kg supplemental Zn in Zn-deficient basal diet): 1012^e mg/tibia; Bone Ash (%) (3 mg/kg supplemental Zn): 42.8^bcd %; Bone Ash Wt (mg/tibia) (3 mg/kg supplemental Zn): 433^de mg/tibia; Tibia Ash Zn Conc. (μg/g of ash) (3 mg/kg supplemental Zn): 79.16^ef μg/g of ash; Dry Bone Wt (mg/tibia) (6 mg/kg supplemental Zn in Zn-deficient basal diet): 1104^bdc mg/tibia; Bone Ash (%) (6 mg/kg supplemental Zn): 43.4^abcd %; Bone Ash Wt (mg/tibia) (6 mg/kg supplemental Zn): 478^bc mg/tibia; Tibia Ash Zn Conc. (μg/g of ash) (6 mg/kg supplemental Zn): 88.98^cd μg/g of ash; Dry Bone Wt (mg/tibia) (9 mg/kg supplemental Zn in Zn-deficient basal diet): 1176^ab mg/tibia; Bone Ash (%) (9 mg/kg supplemental Zn): 43.8^ab %; Bone Ash Wt (mg/tibia) (9 mg/kg supplemental Zn): 515^ab mg/tibia; Tibia Ash Zn Conc. (μg/g of ash) (9 mg/kg supplemental Zn): 101.2^ab μg/g of ash; Feed efficiency (Zinc inclusion at 3 mg/kg and 6 mg/kg): approximately 560 g/kg of feed consumed
